These results are taken from patent US20230263822A1, “MODULATION OF FACTOR 11 EXPRESSION” (Ionis Pharmaceuticals, Inc., priority 2008, published 2023).

For this data set, the system named is human Factor 11 mRNA. The data set can be described thus: Antisense inhibition of human Factor 11 in HepG2 cells, lipofectin, 75 nM (Example 1). The conditions noted are these: 75 nM antisense oligonucleotide, ~24 h, relative to untreated control cells, gapmers targeted to SEQ ID NO: 1. In kind it is cell-based. On the procedure: Antisense oligonucleotides targeted to a Factor 11 nucleic acid were tested for their effects on Factor 11 mRNA in vitro. Cultured HepG2 cells at a density of 10,000 cells per well were transfected using lipofectin reagent with 75 nM antisense oligonucleotide. After a treatment period of approximately 24 hours, RNA was isolated from the cells and Factor 11 mRNA levels were measured by quantitative real time PCR. Factor 11 mRNA levels were adjusted according to total RNA content, as measured by RIBOGREEN. Results are presented as percent inhibition of Factor 11, relative to untreated control cells.
The chimeric antisense oligonucleotides in Tables 1 and 2 were designed as 5-10-5 MOE gapmers. The gapmers are 20 nucleotides in length, wherein the central gap segment is comprised of 10 2′-deoxynucleotides and is flanked on both sides (in the 5′ and 3′ directions) by wings comprising 5 nucleotides each. Each nucleotide in the 5′ wing segment and each nucleotide in the 3′ wing segment has a 2′-MOE modification. The internucleoside linkages throughout each gapmer are phosphorothioate (P=S) linkages. All cytidine residues throughout each gapmer are 5-methylcytidines. “Target start site” indicates the 5′-most nucleotide to which the gapmer is targeted. “Target stop site” indicates the 3′-most nucleotide to which the gapmer is targeted. Each gapmer listed in Table 1 is targeted to SEQ TD NO: 1 (GENBANK Accession No. NM_000128.3) and each gapmer listed in Table 2 is targeted to SEQ TD NO: 2 (GENBANK Accession No. NT_022792.17, truncated from 19598000 to 19624000).

Strand notation (5' to 3'): a small letter for the sugar, then the base; units joined by * are phosphorothioate-linked, units joined directly phosphodiester-linked; [ ] holds rarer units or linkages, { } end groups; capitals alone tell only the bases. e = 2'-O-(2-methoxyethyl) (MOE); [5mC] = 5-methylcytosine; d = 2'-deoxy (DNA)

For orientation: % inhibition means the change of the read-out against control, counted positive when it falls. “412200 (antisense eA*eA*eG*eA*eA*dT*dA*d[5mC]*d[5mC]*d[5mC]*dA*dG*dA*dA*dA*eT*e[5mC]*eG*e[5mC]*eT) [compound 412200]”: the “% inhibition” value is 59%.
Take “412201 (antisense e[5mC]*eA*eT*eT*eG*d[5mC]*dT*dT*dG*dA*dA*dA*dG*dA*dA*eT*eA*e[5mC]*e[5mC]*e[5mC]) [compound 412201]”: the “% inhibition” value was 66%.
As to “412202 (antisense eT*eT*eG*eG*eT*dG*dT*dG*dA*dG*d[5mC]*dA*dT*dT*dG*e[5mC]*eT*eT*eG*eA) [compound 412202]”, the “% inhibition” value worked out at 65%.
On to “412205 (antisense eG*eT*eT*eT*eA*dT*dG*d[5mC]*d[5mC]*d[5mC]*dT*dT*d[5mC]*dA*dT*eG*eT*e[5mC]*eT*eA) [compound 412205]”, for which the “% inhibition” value is reported as 69%.
Turning to “412207 (antisense e[5mC]*eG*eT*eG*eA*dA*dA*dA*dA*dG*dT*dG*dG*d[5mC]*dA*eG*eT*eG*eG*eA) [compound 412207]”, the “% inhibition” value was 64%.
For “412208 (antisense eA*eG*eA*e[5mC]*eA*dA*dA*dT*dG*dT*dT*dA*d[5mC]*dG*dA*eT*eG*e[5mC]*eT*e[5mC]) [compound 412208]”, the “% inhibition” value amounted to 73%.
To “412209 (antisense eG*eT*eG*e[5mC]*eT*dT*d[5mC]*dA*dG*dT*dA*dG*dA*d[5mC]*dA*eA*eA*eT*eG*eT) [compound 412209]” belongs 91%; to “412210 (antisense eT*eG*e[5mC]*eA*e[5mC]*dA*dG*dG*dA*dT*dT*dT*d[5mC]*dA*dG*eT*eG*eA*eA*eA) [compound 412210]”, 73%.
With “412211 (antisense eG*eA*eT*eT*eA*dG*dA*dA*dA*dG*dT*dG*d[5mC]*dA*d[5mC]*eA*eG*eG*eA*eT) [compound 412211]”, the “% inhibition” value worked out at 64%.
On to “412214 (antisense eT*e[5mC]*e[5mC]*eT*eG*dG*dG*dA*dA*dA*dA*dG*dA*dA*dG*eG*eT*eA*eA*eA) [compound 412214]”, for which the “% inhibition” value is 58%.
On to “412216 (antisense eA*eA*eA*eG*eA*dT*dT*dT*d[5mC]*dT*dT*dT*dG*dA*dG*eA*eT*eT*e[5mC]*eT) [compound 412216]”, for which the “% inhibition” value is recorded as 43%.
As for “412217 (antisense eA*eA*eT*e[5mC]*e[5mC]*dA*d[5mC]*dT*d[5mC]*dT*d[5mC]*dA*dG*dA*dT*eG*eT*eT*eT*eT) [compound 412217]”, the “% inhibition” value turned out to be 47%.
With “412218 (antisense eA*eA*e[5mC]*e[5mC]*eA*dG*dA*dA*dA*dG*dA*dG*d[5mC]*dT*dT*eT*eG*e[5mC]*eT*e[5mC]) [compound 412218]”, the “% inhibition” value came out at 27%.
For the substance “412219 (antisense eG*eG*e[5mC]*eA*eG*dA*dA*d[5mC]*dA*d[5mC]*dT*dG*dG*dG*dA*eT*eG*e[5mC]*eT*eG) [compound 412219]”, the “% inhibition” value is 56%.
To “412220 (antisense eT*eG*eG*eT*eA*dA*dA*dA*dT*dG*dA*dA*dG*dA*dA*eT*eG*eG*e[5mC]*eA) [compound 412220]” belongs 58%; to “412221 (antisense eA*eT*e[5mC]*eA*eG*dT*dG*dT*d[5mC]*dA*dT*dG*dG*dT*dA*eA*eA*eA*eT*eG) [compound 412221]”, 48%; to “412222 (antisense eA*eA*e[5mC]*eA*eA*dT*dA*dT*d[5mC]*d[5mC]*dA*dG*dT*dT*d[5mC]*eT*eT*e[5mC]*eT*e[5mC]) [compound 412222]”, 5%.
On to “412226 (antisense eT*eT*eG*eA*eA*dG*dA*dA*dA*dG*d[5mC]*dT*dT*dT*dA*eA*eG*eT*eA*eA) [compound 412226]”, for which the “% inhibition” value is recorded as 17%.
With “412227 (antisense eA*eG*eT*eA*eT*dT*dT*dT*dA*dG*dT*dT*dG*dG*dA*eG*eA*eT*e[5mC]*e[5mC]) [compound 412227]” the figure was 75%; with “412228 (antisense eA*eT*eG*eT*eG*dT*dA*dT*d[5mC]*d[5mC]*dA*dG*dA*dG*dA*eT*eG*e[5mC]*e[5mC]*eT) [compound 412228]”, 71%.
With “412229 (antisense eG*eT*eA*e[5mC]*eA*d[5mC]*dT*d[5mC]*dA*dT*dT*dA*dT*d[5mC]*d[5mC]*eA*eT*eT*eT*eT) [compound 412229]” the figure was 64%; with “412230 (antisense eG*eA*eT*eT*eT*dT*dG*dG*dT*dG*dG*dT*dA*d[5mC]*dA*e[5mC]*eT*e[5mC]*eA*eT) [compound 412230]”, 52%; with “412231 (antisense eT*e[5mC]*e[5mC]*eT*eG*dG*dG*d[5mC]*dT*dT*dG*dA*dT*dT*dT*eT*eG*eG*eT*eG) [compound 412231]”, 74%.
To “412232 (antisense eG*eG*e[5mC]*e[5mC]*eA*d[5mC]*dT*d[5mC]*dA*d[5mC]*d[5mC]*dA*d[5mC]*dG*dA*eA*e[5mC]*eA*eG*eA) [compound 412232]” belongs 80%; to “412233 (antisense eT*eG*eT*e[5mC]*eT*d[5mC]*dT*dG*dA*dG*dT*dG*dG*dG*dT*eG*eA*eG*eG*eT) [compound 412233]”, 64%.
On to “412234 (antisense eG*eT*eT*eT*e[5mC]*d[5mC]*dA*dA*dT*dG*dA*dT*dG*dG*dA*eG*e[5mC]*e[5mC]*eT*e[5mC]) [compound 412234]”, for which the “% inhibition” value is reported as 60%.
To “412235 (antisense eA*eT*eA*eT*e[5mC]*d[5mC]*dA*d[5mC]*dT*dG*dG*dT*dT*dT*d[5mC]*e[5mC]*eA*eA*eT*eG) [compound 412235]” belongs 57%; to “412236 (antisense e[5mC]*e[5mC]*eA*eT*eA*dG*dA*dA*dA*d[5mC]*dA*dG*dT*dG*dA*eG*e[5mC]*eG*eG*e[5mC]) [compound 412236]”, 72%.
“412237 (antisense eT*eG*eA*e[5mC]*eT*d[5mC]*dT*dA*d[5mC]*d[5mC]*d[5mC]*d[5mC]*dA*dT*dA*eG*eA*eA*eA*e[5mC]) [compound 412237]”: the “% inhibition” value is reported as 48%.
“412238 (antisense e[5mC]*eG*e[5mC]*eA*eA*dA*dA*dT*d[5mC]*dT*dT*dA*dG*dG*dT*eG*eA*e[5mC]*eT*e[5mC]) [compound 412238]”: the “% inhibition” value worked out at 71%.
With “412239 (antisense eT*eT*e[5mC]*eA*eG*dA*dT*dT*dG*dA*dT*dT*dT*dA*dA*eA*eA*eT*eG*e[5mC]) [compound 412239]” the figure was 43%; with “412240 (antisense eT*eG*eA*eA*e[5mC]*d[5mC]*d[5mC]*d[5mC]*dA*dA*dA*dG*dA*dA*dA*eG*eA*eT*eG*eT) [compound 412240]”, 32%.
With “412241 (antisense eT*eA*eT*eT*eA*dT*dT*dT*d[5mC]*dT*dT*dG*dA*dA*d[5mC]*e[5mC]*e[5mC]*e[5mC]*eA*eA) [compound 412241]”, the “% inhibition” value turned out to be 41%.
On to “412242 (antisense eA*eA*e[5mC]*eA*eA*dG*dG*d[5mC]*dA*dA*dT*dA*dT*d[5mC]*dA*eT*eA*e[5mC]*e[5mC]*e[5mC]) [compound 412242]”, for which the “% inhibition” value is recorded as 49%.
“412243 (antisense eT*eT*e[5mC]*e[5mC]*eA*dG*dT*dT*dT*d[5mC]*dA*dA*d[5mC]*dA*dA*eG*eG*e[5mC]*eA*eA) [compound 412243]”: the “% inhibition” value amounted to 70%.
